Test results reported in patent publication EP1009418B1, “ROBINIA PSEUDOACACIA LECTIN AND ITS USES” (priority 1997, dated 1999).

Columns and labels:
[1] = test system: small intestine, jejunum and ileum; test: Protection of rats from high-dose 5-FU by oral pre-dosing with RPA: gut wet weights and visual inspection; format: in vivo, Hooded Lister (Rowett Strain) rats
Experimental: (§1) Thirty five young male Hooded Lister (Rowett Strain) rats (19 days old weighing 30-40g) were housed individually in grid bottom cages. The animals were fed a high quality semi-synthetic diet containing 10% lactalbumin protein (Table 1).
(§2) Diet and water was freely available at all times except on day 19 when the amount of food offered was restricted to 10g/rat. At 19 days, rat weights were 100-104g.
Animals pre-dosed with RPA were given the equivalent of 25, 50 or 100 mg/kg body weight RPA (Table 2) in 0.9% saline by gavage. The animals were pre-dosed for three consecutive days prior to the 5-FU injection.
(§3) Animals not pre-dosed with RPA were administered with 1 ml 0.9% saline by gavage.
(§4) 300mg of 5-fluorouracil was stirred in 14ml of distilled water. 1M NaOH was added slowly until the 5-FU had dissolved. The solution was made up to a final volume of 20 ml. The final pH of the solution was 8.3. A dose of 150 mg/kg body weight was administered to the animal by intraperitoneal injection. Immediately after the injection, the rats were offered 15g of the control diet.
Five groups, each consisting of 5 rats were fed on the standard diet containing lactalbumin (Table 1). One group of rats were fed 8 g per day of standard diet for three days and then injected with 5-FU at 150 mg/kg body weight (Table 2).
The rats were pair fed for the first three days and then fed ab libitum post 5-FU injection.
Three groups of animals were gavaged daily with 25, 50 or 100 mg/kg/day body weight Robinia pseudoacacia lectin (RPA) for three days and then injected with 150 mg/kg 5-FU on the following day. The remaining group of animals were pre-dosed with 100 mg/kg body weight RPA and then returned to lactalbumin containing diet without injection of 5-FU. After injection with 5-FU, the animals were returned to lactalbumin containing diet ad lib. The animals were sacrificed 7 days after the start of the experiment, the carcass dissected and the small intestine, jejunum and ileum wet weights recorded.

[2] = test system: small intestine, jejunum and ileum; test: Protection of rats from high-dose 5-FU by oral pre-dosing with A4 or B4 homotetramer lectin: gut dry weights and visual inspection; format: in vivo, Hooded Lister (Rowett Strain) rats
Experimental: as §1, §2, §3, §4
Five groups, each consisting of 5 rats were fed on a standard diet containing lactalbumin (Table 1) and were fed on the following dietary regime (Table 4); Table 4.
One group of animals (Treatment 1) were fed standard diet throughout. The second group were gavaged daily with saline for three days and then injected with 5-FU at 150 mg/kg body weight (Treatment 2). The remaining two groups (Treatment 3 & 4) of animals were gavaged daily for three days with either A4 or B4 RPA homotetramer for three days and then injected with 150 mg/kg body weight 5-FU. After injection with 5-FU, Treatment groups 2-4 were returned to standard diet for four days ad lib. The animals were sacrificed 7 days after the start of the experiment, the carcass dissected and the small intestine, jejunum and ileum dry weights recorded.
Dry weights normalised to 100g dry body weight.

[3] = wet weight, lactalbumin diet 3d, 5-FU 150 mg/kg i.p., no RPA
[4] = dry weight normalised to 100g dry body weight, saline gavage 3d, 5-FU 150 mg/kg, no lectin

O=c1[nH]cc(F)c(=O)[nH]1 [5-FU, 5-fluorouracil]
Visual inspection of the small intestine, jejunum and ileum ([1]; 5-FU alone (treatment 1)): no, or a very thin mucosal layer | Ileum [1, 3]: 1.0 g | Jejunum [1, 3]: 1.0 g | Small intestine [1, 3]: 5.62 g | tissue dry weight versus the untreated control ([2]; 5-FU 150 mg/kg (treatments 1 & 2)): significant reduction in tissue dry weight | Visual inspection of the small intestine, jejunum and ileum ([2]; 5-FU alone): extensively damaged mucosal | Ileum [2, 4]: 405 mg | Jejunum [2, 4]: 336 mg | Small intestine [2, 4]: 1789 mg
